Assay results from patent US20220152072A1, “Selective Inhibitors Of Protein Arginine Methyltransferase 5 (PRMT5)” (Prelude Therapeutics, Incorporated, priority 2019, published 2022).
pIC50: −log10 of the molar value. Each block holds one molecule with its values, some of them ahead of it.

Tests used:
[1] = In vivo pharmacokinetics in rat, i.v. and p.o.; conditions: rat (SD, male, non-fasted), average, N=3
Description: In a rat (SD, male, non-fasted) non-crossover PK study, Example 47 was dosed at 1 mg/kg (DMA: 20% HPBCD=5:95, solution) via i.v. administration (N=3) and 1 mg/kg (0.5% Na CMC+0.5% Tween80, solution) via oral gauge (p.o.) (N=3).

FaSSIF solubility (HPLC) = conditions: positive control, range
Description: Compounds were first dispersed in freshly prepared FaSSIF (http://biorelevant.com/site_media/upload/documents/How_to_make_FaSSIF_FeSSIF_and_FaSSGF.pdf) buffer in 1 mg/mL respectively, and the standard samples were prepared by preparing 1 mg/mL of test compounds in DMSO. The compounds were then sufficient mixed by vortex mixer for 30 sec, and agitated at 25° C. using 300 rpm form 4 hour in thermo mixer. After incubation, the prepared samples were centrifuged at 10000 rpm for 10 min to remove the undissolved solid, the resulting supernatants were applied to HPLC.
S=Csmp=Cstd*(Asmp/Astd)*(Vstd/Vsmp)
Where C is the sample concentration in μg/mL, A is the peak area, and V is the injection volume.

PRMT5/MEP50 complex = PRMT5/MEP50 complex (Homo sapiens, UniProt O14744); test: Biochemical assay: PRMT5/MEP50 methylation of histone H2A with 3H-SAM, filter plate scintillation; conditions: PRMT5/MEP50 5 nM, histone H2A 5 μM, SAM 1 μM
Sequence of PRMT5/MEP50 complex (O14744 whole entry, species assumed): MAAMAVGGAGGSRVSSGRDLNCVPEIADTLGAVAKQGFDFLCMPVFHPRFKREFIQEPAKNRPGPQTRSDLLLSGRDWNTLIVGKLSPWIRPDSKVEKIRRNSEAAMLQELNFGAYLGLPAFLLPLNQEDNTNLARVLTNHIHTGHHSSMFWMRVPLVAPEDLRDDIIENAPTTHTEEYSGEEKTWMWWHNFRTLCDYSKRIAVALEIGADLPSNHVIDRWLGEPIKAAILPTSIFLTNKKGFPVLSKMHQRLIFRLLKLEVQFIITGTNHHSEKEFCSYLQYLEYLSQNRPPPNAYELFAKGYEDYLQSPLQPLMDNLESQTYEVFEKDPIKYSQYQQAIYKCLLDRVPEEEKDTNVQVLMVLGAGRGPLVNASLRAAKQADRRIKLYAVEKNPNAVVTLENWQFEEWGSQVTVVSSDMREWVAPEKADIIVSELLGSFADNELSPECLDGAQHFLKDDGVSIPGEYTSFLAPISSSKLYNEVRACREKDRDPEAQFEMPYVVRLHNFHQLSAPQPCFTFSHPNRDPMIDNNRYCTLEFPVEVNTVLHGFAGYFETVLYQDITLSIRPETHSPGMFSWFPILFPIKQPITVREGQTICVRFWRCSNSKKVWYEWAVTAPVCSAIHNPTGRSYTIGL
Sequence of PRMT5/MEP50 complex (Q9BQA1 whole entry partner, species assumed): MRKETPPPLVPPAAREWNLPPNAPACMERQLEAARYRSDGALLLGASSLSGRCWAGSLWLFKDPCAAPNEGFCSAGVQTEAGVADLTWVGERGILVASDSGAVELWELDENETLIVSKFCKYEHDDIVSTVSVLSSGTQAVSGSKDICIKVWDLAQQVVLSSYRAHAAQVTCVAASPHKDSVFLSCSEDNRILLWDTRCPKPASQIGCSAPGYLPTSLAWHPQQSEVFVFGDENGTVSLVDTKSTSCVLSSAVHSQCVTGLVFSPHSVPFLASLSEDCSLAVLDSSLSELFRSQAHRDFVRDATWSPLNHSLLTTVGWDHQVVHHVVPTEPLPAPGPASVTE
Description: Compounds were solubilized and 3-fold diluted in 100% DMSO. […] Standard reactions were performed in a total volume of 50 μl in assay buffer, with histone H2A (5 μM final) as substrate. To this was added the PRMT5/MEP50 complex diluted to provide a final assay concentration of 5 nM and the compounds were allowed to preincubate for 15 to 20 minutes at room temperature. The reaction was initiated by adding S-[3H-methyl]-adenosyl-L-methionine (PerkinElmer) to final concentration of 1 μM. Following a 60 minutes incubation at 30° C., the reaction was stopped by adding 100 μL of 20% TCA. Each reaction was spotted onto filter plate (MultiScreen FB Filter Plate, Millipore), and washed 5 times with PBS buffer, Scintillation fluid was added to the filter plate and read in a scintillation counter. IC50 values were determined by fitting the data to the standard 4 parameters with Hill Slope using GraphPad Prism software.

- T1/2 ([1]; 1 mg/kg i.v.): 4.1 h
- Vss ([1]; 1 mg/kg i.v.): 3.1 L/kg
- blood clearance ([1]; 1 mg/kg i.v.): 8.8 mL/min/kg
- dose normalized AUC ([1]; 1 mg/kg p.o.): 3246 ng·kg·h/mL/mg
Compound: C[C@@]1(O)[C@@H]([C@H](O)c2ccc(Cl)c(Cl)c2)O[C@@H](n2ccc3c(N)ncnc32)[C@@H]1O [Example 47, (2R,3S,4R,5R)-5-(4-amino-7H-pyrrolo[2,3-d]pyrimidin-7-yl)-2-((R)-(3,4-dichlorophenyl) (hydroxy)methyl)-3-methyltetrahydrofuran-3,4-diol]

- FaSSIF solubility (positive controls) (FaSSIF solubility (HPLC)): 10 to 25 µg/mL
Compound: CC(=O)CC(c1ccccc1)c1c(O)c2ccccc2oc1=O (stereo not drawn) [Warfarin]

- pIC50 (PRMT5/MEP50 complex): 6.15
Compound: C[C@@]1(O)[C@@H]([C@@H](O)c2ccc(Cl)c(Cl)c2)O[C@@H](n2ccc3c(N)ncnc32)[C@@H]1O [Example 66, (2R,3S,4R,5R)-5-(4-amino-7H-pyrrolo[2,3-d]pyrimidin-7-yl)-2-((S)-(3,4-dichlorophenyl) (hydroxy)methyl)-3-methyltetrahydrofuran-3,4-diol]
